Test results published in patent US5347012A, “Naphthothiopyranone derivatives” (Taisho Pharmaceutical Co., Ltd., priority 1990, dated 1994).

Test system: Emesis induced by cisplatin
Assay: Anti-vomiting effect test: inhibition of cisplatin-induced emesis in suncus
Type: in vivo
Settings: 45 min before cisplatin 30 mg/kg i.v., emesises over 2 hours; for % value to control (number of emesises): control = 100%
Description: Emesis induced by cisplatin is known to be inhibited by antagonists at 5-HT3 receptors. The anti-vomiting effect of the compound of the present invention was compared with that of the compound described in Example of Japanese Patent Kokai 2-209876 according to the method of Matsumoto et al [Japanese Journal of Pharmacology, vol. 48, pp. 303-306 (1988)].
The compound obtained in Example 4 (hereinafter referred to as "Compound A") and the compound described in Example 1 of Japanese Patent Kokai 2-209876 (hereinafter referred to as "Compound B") were each suspended in 0.4% aqueous carboxymethylcellulose solution to give test samples.
Group each of six suncus of either sex weighing 40-60 g (male) and 30-50 g (female) were used. Each animal was placed with a chronic intravenous cannula 3 days before vomiting test. The samples prepared above were orally administered in the doses of 0.03-3 mg/kg to each group of the animals. After 45 minutes 30 mg/kg of cisplatin was administered intravenously, and number of emesises was determined for a period of 2 hours. Number of emesises for a period of 2 hours of a control group treated with 0.4% carboxymethylcellulose suspension alone was determined as well.
Number of emesises obtained above was expressed as compared with 100% of the control, and IC50 value was calculated by number of emesises.

`Cc1nccn1Cc1csc2ccc3ccccc3c2c1=O.Cl` [Compound A, 2-[(2-Methyl-1-imidazolyl)methyl]-1H-naphtho-[2,1-b]thiopyran-1-one hydrochloride] was tested. Which “% value to control (number of emesises)” value (0.03 mg/kg oral) did it give?
The value was 77.8%.

What about the “% value to control (number of emesises)” value (0.3 mg/kg oral) of the same molecule?
The value was 17.0%.

And the “% value to control (number of emesises)” value (3 mg/kg oral)?
The value was 4.4%.

And the ED50 (oral, doses 0.03-3 mg/kg, read-out: IC50 value (number of emesises))?
The ED50 was 0.0904 mg/kg.
